Experimental data reported in PubChem BioAssay (NCI).
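In this assay, cells in 96-well plates receive the compound at five concentrations for 48 hours. Endpoints are linearly interpolated between the surrounding concentrations. GI50 is the concentration that inhibits growth by half. TGI marks complete inhibition of growth.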

Columns and labels:
Assay in all cases: NCI-60 cell line screen, 48 h
786-0 renal = test system: 786-0 renal
A498 renal = test system: A498 renal
A549 NSCLC = test system: A549 NSCLC
ACHN renal = test system: ACHN renal
BT-549 breast = test system: BT-549 breast
CAKI-1 renal = test system: CAKI-1 renal
CCRF-CEM leukemia = test system: CCRF-CEM leukemia
COLO 205 colon = test system: COLO 205 colon
DU-145 prostate = test system: DU-145 prostate
HCC-2998 colon = test system: HCC-2998 colon
HCT-116 colon = test system: HCT-116 colon
HCT-15 colon = test system: HCT-15 colon
HL-60(TB) leukemia = test system: HL-60(TB) leukemia
HOP-62 NSCLC = test system: HOP-62 NSCLC
HS 578T breast = test system: HS 578T breast
HT29 colon = test system: HT29 colon
IGROV1 ovarian = test system: IGROV1 ovarian
K-562 leukemia = test system: K-562 leukemia
KM12 colon = test system: KM12 colon
M14 melanoma = test system: M14 melanoma
MALME-3M melanoma = test system: MALME-3M melanoma
MCF7 breast = test system: MCF7 breast
MDA-MB-231 breast = test system: MDA-MB-231 breast
MDA-MB-435 = test system: MDA-MB-435
MOLT-4 leukemia = test system: MOLT-4 leukemia
NCI-H226 lung = test system: NCI-H226 lung
NCI-H23 lung = test system: NCI-H23 lung
NCI-H460 lung = test system: NCI-H460 lung
NCI-H522 lung = test system: NCI-H522 lung
NCI/ADR-RES ovarian = test system: NCI/ADR-RES ovarian
OVCAR-3 ovarian = test system: OVCAR-3 ovarian
OVCAR-4 ovarian = test system: OVCAR-4 ovarian
OVCAR-5 ovarian = test system: OVCAR-5 ovarian
OVCAR-8 ovarian = test system: OVCAR-8 ovarian
PC-3 prostate = test system: PC-3 prostate
RPMI-8226 leukemia = test system: RPMI-8226 leukemia
RXF 393 renal = test system: RXF 393 renal
SF-268 CNS = test system: SF-268 CNS
SF-295 CNS = test system: SF-295 CNS
SF-539 CNS = test system: SF-539 CNS
SK-MEL-28 melanoma = test system: SK-MEL-28 melanoma
SK-MEL-5 melanoma = test system: SK-MEL-5 melanoma
SK-OV-3 ovarian = test system: SK-OV-3 ovarian
SN12C renal = test system: SN12C renal
SNB-19 CNS = test system: SNB-19 CNS
SNB-75 CNS = test system: SNB-75 CNS
SR leukemia = test system: SR leukemia
SW-620 colon = test system: SW-620 colon
T-47D breast = test system: T-47D breast
TK-10 renal = test system: TK-10 renal
U251 CNS = test system: U251 CNS
UACC-257 melanoma = test system: UACC-257 melanoma
UACC-62 melanoma = test system: UACC-62 melanoma
UO-31 renal = test system: UO-31 renal

## COc1ccc(C(=O)c2sc3nc4c(cc3c2N)CCCC4)cc1OC
786-0 renal
  GI50: 4.01 µM
  TGI: 17 µM
A498 renal
  GI50: 1.83 µM
  TGI: 9.43 µM
A549 NSCLC
  GI50: 3.28 µM
  TGI: 12.9 µM
ACHN renal
  GI50: 6.58 µM
  TGI: 31.3 µM
BT-549 breast
  GI50: 2.68 µM
  TGI: 8.25 µM
CAKI-1 renal
  GI50: 2.83 µM
  TGI: 13 µM
CCRF-CEM leukemia
  GI50: 2.95 µM
  TGI: 12.3 µM
COLO 205 colon
  GI50: 3.33 µM
  TGI: 10.1 µM
DU-145 prostate
  GI50: 6.74 µM
  TGI: 36.6 µM
HCC-2998 colon
  GI50: 7.01 µM
  TGI: 30.4 µM
HCT-116 colon
  GI50: 3.78 µM
  TGI: 50.2 µM
HCT-15 colon
  GI50: 2.48 µM
  TGI: 21.2 µM
HL-60(TB) leukemia
  GI50: 2.8 µM
  TGI: 7.62 µM
HOP-62 NSCLC
  GI50: 3.87 µM
  TGI: 15.3 µM
HS 578T breast
  GI50: 4.93 µM
  TGI: 56.6 µM
HT29 colon
  GI50: 3.08 µM
  TGI: 15.9 µM
IGROV1 ovarian
  GI50: 4.75 µM
  TGI: 29.3 µM
K-562 leukemia
  GI50: 0.946 µM
  TGI: 40.6 µM
KM12 colon
  GI50: 2.43 µM
  TGI: 15.5 µM
M14 melanoma
  GI50: 2.83 µM
  TGI: 11.5 µM
MALME-3M melanoma
  GI50: 2.71 µM
  TGI: 14.8 µM
MCF7 breast
  GI50: 2.74 µM
  TGI: 10.6 µM
MDA-MB-231 breast
  GI50: 3.74 µM
  TGI: 8.72 µM
MDA-MB-435
  GI50: 0.723 µM
  TGI: 5.76 µM
MOLT-4 leukemia
  GI50: 2.62 µM
  TGI: 6.49 µM
NCI-H226 lung
  GI50: 3.5 µM
  TGI: 23 µM
NCI-H23 lung
  GI50: 2.64 µM
  TGI: 9.94 µM
NCI-H460 lung
  GI50: 3.22 µM
  TGI: 13.2 µM
NCI-H522 lung
  GI50: 1.52 µM
  TGI: 5.53 µM
NCI/ADR-RES ovarian
  GI50: 2.04 µM
  TGI: 6.67 µM
OVCAR-3 ovarian
  GI50: 3.91 µM
  TGI: 24.4 µM
OVCAR-4 ovarian
  GI50: 3.48 µM
  TGI: 18.6 µM
OVCAR-5 ovarian
  GI50: 14.1 µM
  TGI: 48.5 µM
OVCAR-8 ovarian
  GI50: 2.83 µM
  TGI: 9.88 µM
PC-3 prostate
  GI50: 2.97 µM
  TGI: 15 µM
RPMI-8226 leukemia
  GI50: 2.31 µM
  TGI: 8.01 µM
RXF 393 renal
  GI50: 3.41 µM
  TGI: 24.2 µM
SF-268 CNS
  GI50: 5.56 µM
  TGI: 34.6 µM
SF-295 CNS
  GI50: 3.06 µM
  TGI: 13.5 µM
SF-539 CNS
  GI50: 3.83 µM
  TGI: 25.7 µM
SK-MEL-28 melanoma
  GI50: 2.95 µM
  TGI: 14.8 µM
SK-MEL-5 melanoma
  GI50: 1.87 µM
  TGI: 4.92 µM
SK-OV-3 ovarian
  GI50: 10 µM
  TGI: 47.6 µM
SN12C renal
  GI50: 4.18 µM
  TGI: 48.5 µM
SNB-19 CNS
  GI50: 7.06 µM
  TGI: > 100 µM
SNB-75 CNS
  GI50: 2.79 µM
  TGI: 9.93 µM
SR leukemia
  GI50: 1.59 µM
  TGI: 17.8 µM
SW-620 colon
  GI50: 4.15 µM
  TGI: 26.9 µM
T-47D breast
  GI50: 2.65 µM
  TGI: 8.95 µM
TK-10 renal
  GI50: 4.77 µM
  TGI: 26.5 µM
U251 CNS
  GI50: 3.03 µM
  TGI: 16.2 µM
UACC-257 melanoma
  GI50: 3.81 µM
  TGI: 14.9 µM
UACC-62 melanoma
  GI50: 1.99 µM
  TGI: 6.8 µM
UO-31 renal
  GI50: 3.04 µM
  TGI: 13.8 µM
